Common to all, as to test: NCI tumour cell line growth inhibition, 48 h
In assay [1] the test system is U251 CNS.
Assay [2] deals with KM12 colon.
Assay [3] has as its system SW-620 colon.
Assay [4] concerns SF-268 CNS.
The subject of assay [5] is SK-MEL-28 melanoma.
The test system of assay [6] is A498 renal.
Assay [7] relates to BT-549 breast.
Assay [8] deals with A549 NSCLC.
Assay [9] has as its system SF-539 CNS.
Assay [10] deals with RPMI-8226 leukemia.

These results are taken from PubChem BioAssay (NCI).

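Step 1: Grow cells in 96-well plates. Step 2: Expose to compound for 48 hours at 5 concentrations. Step 3: Interpolate endpoints linearly; if unreached, use highest concentration. Here, GI50 denotes the concentration required for 50% inhibition of growth. Definition used: TGI = concentration required for complete inhibition of growth.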

For `CCN1C(=S)N(c2ccccc2)C2NC(=S)N(/N=C/C=C/c3ccccc3OC)C21` (centres undefined), the GI50 in [1] was 0.393 µM; in [2] it was 0.323 µM; in [3], 0.404 µM; in assay [4], 0.706 µM; in assay [5], 1.47 µM; in assay [6], 0.235 µM. The GI50 in assay [7] is 0.954 µM; in [8], 0.607 µM; in assay [9], 0.253 µM; in [10], 0.377 µM. The TGI was above 100 µM in assay [1]; above 64.8 µM in assay [2]; above 100 µM in assay [3]; above 91 µM in assay [4]; above 100 µM in assay [5]; 0.833 µM in [6]. In addition, the values for the TGI in assay [8], in assay [9] and in assay [10] were above 100 µM, 0.732 µM and above 24.8 µM, respectively.
On to `c1cc(NNc2cccc(-c3nn[nH]n3)c2)cc(-c2nn[nH]n2)c1`, for which the TGI in assay [1], in [2], in assay [3], in assay [4], in assay [5] and in assay [6] was above 100 µM in each case. In addition, the TGI in assay [7], in assay [8], in assay [9] and in assay [10] was above 100 µM in each case.
As for `COc1cc(C2Cc3ncccc3-c3[nH]c(=O)c4cccnc4c32)cc(OC)c1OC` (centres undefined), the GI50 was 0.524 µM in assay [1]; 0.373 µM in [2]; 0.412 µM in assay [3]; 0.67 µM in assay [4]; 36 µM in assay [5]; 0.363 µM in assay [6]. Also, the GI50 in assay [7] is 0.633 µM; in assay [8], 0.825 µM; in [9] it was 0.269 µM; in assay [10], 0.68 µM. The TGI in assay [1] is 38.2 µM; in [2] it was above 100 µM; in [3], above 100 µM; in [4], above 100 µM; in assay [5], above 100 µM; in assay [6] it was 13.5 µM. The TGI in assay [7] was 66.6 µM; in assay [8] it was above 100 µM; in assay [9] it was 1.55 µM; in [10], above 100 µM.
In the case of `O=S(=O)(NCCCNc1nccc(-c2c(-c3ccc(O)cc3)nc3sccn23)n1)c1ccc(F)cc1`, the GI50 in assay [1] is 2.92 µM; in assay [2], 2.02 µM; in assay [3] it was 3.66 µM; in assay [4], 2.94 µM; in assay [5] it was 0.0528 µM; in [6], 1.55 µM. Further, the GI50 in [7] is 2.36 µM; in assay [8], 2.64 µM; in assay [9], 2.04 µM; in assay [10], 1.58 µM. In addition, the TGI in assay [1] was 12.4 µM; in assay [2] it was 5.46 µM; in assay [3], above 100 µM; in assay [4], 14.7 µM; in assay [5], 6.23 µM; in [6] it was 5.16 µM. Moreover, the TGI in [7] was 10.4 µM; in assay [8] it was 20.3 µM; in assay [9] it was 13.9 µM; in [10] it was 4.72 µM.
On to `Cc1cc(S(=O)(=O)Nc2nc3ccccc3o2)c(SCc2ccccc2)cc1Cl`, for which the GI50 in assay [1] was 16.1 µM; in [2], 18.4 µM; in assay [3], 20.6 µM; in [4] it was 18.9 µM; in assay [5] it was 25.6 µM; in [6], 23.1 µM. Further, the GI50 in assay [7] is 30.5 µM; in assay [8] it was 21.7 µM; in assay [9], 19.1 µM; in assay [10], 11.2 µM. The TGI in assay [1] stood at 31 µM; in assay [2], 43.4 µM; in assay [3], 56.4 µM; in [4] it was 47.7 µM; in assay [5], 62.9 µM; in assay [6], 43.3 µM. Besides, the TGI in assay [7] was 79.3 µM; in assay [8], 45.3 µM; in assay [9], 40.8 µM; in [10], 30.1 µM.
On to `CCSCC1CC(O)(c2ccccc2)CC(c2ccc(F)cc2)O1` (centres undefined), for which the GI50 is 1.63 µM in [1]; 1.88 µM in assay [2]; 1.98 µM in assay [3]; 2.41 µM in [4]; 2.15 µM in assay [5]; 1.44 µM in assay [6]. Moreover, the GI50 was 1.6 µM in assay [7], 2.74 µM in [8], 1.94 µM in [9] and 1.95 µM in [10]. The TGI stood at 3.3 µM in [1]; 3.67 µM in assay [2]; 4.42 µM in assay [3]; 6.11 µM in assay [4]; 4.44 µM in [5]; 2.77 µM in assay [6]. Further, the TGI in assay [7] was determined as 3.45 µM; in assay [8], 11 µM; in assay [9] it was 3.84 µM; in [10], 6.46 µM.
